# Measured values: patent US20130039887A1, “Methods of Identifying and Using Anti-Viral Compounds” (KINETA, INC., priority 2010, published 2013)
# Tests used:
# [1] = tested on: actin promoter; experiment: Actin promoter control cell line counter screen (β-actin-LUC); format: cell-based, human
# [2] = tested on: Influenza A virus WSN strain (A/WSN/33); experiment: Influenza A virus nucleoprotein ELISA / Western blot assay; format: cell-based; details: ELISA and Western blot
# [3] = tested on: Huh7, MRC5 and 293 cells; experiment: MTS cytotoxicity assay in multiple cell types (Huh7, MRC5, 293); format: cell-based, human
# Description: All lead molecules chosen for further development mediate IRF-3 nuclear translocation and have antiviral activity against HCV. All induce dose-dependent activation of ISG expression in the absence of nonspecific promoter (β-actin) induction. To analyze in vitro cytotoxicity of lead agonist molecules, an MTS assay was conducted using multiple cell types (Huh7, human liver; MRC5, lung fibroblast; and 293, […]).
# [4] = tested on: ISG54 promoter; experiment: ISG54-luciferase reporter assay in Huh7-ISG54-Luc cells; format: cell-based, human; details: dose response (5-50 μM), 24 h
# [5] = tested on: HCV2a virus; experiment: HCV immunofluorescence antiviral / focus-forming assay in Huh7 cells; format: cell-based, Hepatitis C virus; details: Huh7 cells pre-treated 24 h (compounds 10 μM), HCV2a MOI 0.1-0.5
# Description: HCV immunofluorescence antiviral assay: Huh7 cells are seeded on a 96-well plate at a density of 5×10^3 cells per well and grown for 24 hours. Compounds that have been diluted to 10 μM in media and contain a final concentration of 0.5% DMSO are added to each well and grown another 24 hours. The compound media solution is removed from the plate and stored in a clean tissue culture dish. Cell monolayers are washed with PBS and HCV2a virus is added at the stated MOI. Virus is incubated for 2-4 hours and then removed, the monolayers are washed with PBS and the compound solutions are replaced into each well.
# The cells are grown overnight and then cells are fixed and stained for HCV proteins. All buffers and reagents used are from the Cellomics staining kits described above. HCV specific antibodies from either commercial sources or primary patient serum can be used to detect HCV infected cells in culture. […] The number of infected cells is counted and representative images are saved. […]
# To measure levels of HCV infection with or without drug treatment the cells were stained for HCV specific staining using serum and a FITC conjugated fluorescent secondary antibody. […] Using an inverted fluorescent microscope the number of infected cells is quantitated (shown—FIG. 9 bottom panel). […]
Compound,nonspecific promoter induction (β-actin-LUC) [1],anti-influenza activity (viral nucleoprotein levels) [2],cytotoxicity (MTS assay) [3],induction of the ISG54-luciferase reporter [4],"HCV infection (infected cells stained for HCV proteins, IF assay) [5]"
NS(=O)(=O)c1ccc(-c2ccc(/C=C3/SC(=S)N(Cc4ccco4)C3=O)o2)cc1 [KIN300],absence of nonspecific promoter induction,"efficient, dose-dependent anti-influenza activity",absence of cytotoxicity,dose-dependent induction,
N#Cc1c(-c2ccccc2)cc(-c2ccccc2)nc1SCC(=O)N1CCOCC1 [KIN400],,"efficient, dose-dependent anti-influenza activity",,,
COc1ccc(NC(=O)Cn2c(=O)n(Cc3ccco3)c(=O)c3oc4ccccc4c32)c(OC)c1 [KIN500],,"efficient, dose-dependent anti-influenza activity",,,
Interferon,,,,,completely blocks HCV infection
